Measurements as given in PubChem BioAssay AID1259407 (Chemical Carcinogenesis Research Information System (CCRIS), 2018).
The source made the active and inactive calls. No rule for the calls is given here.

Test system: CCRIS mutagenicity, Ames/micronucleus/aberration tests
Test: CCRIS mutagenicity studies
[1] = Test System: AMES SALMONELLA TYPHIMURIUM, Strain/Indicator: TA97, Metabolic Activation: HAMSTER, LIVER, S-9, AROCLOR 1254 (10 OR 30%), Method: PREINCUBATION
[2] = Test System: AMES SALMONELLA TYPHIMURIUM, Strain/Indicator: TA97, Metabolic Activation: NONE, Method: PREINCUBATION
[3] = Test System: AMES SALMONELLA TYPHIMURIUM, Strain/Indicator: TA97, Metabolic Activation: RAT, LIVER, S-9, AROCLOR 1254 (10 OR 30%), Method: PREINCUBATION
[4] = Test System: AMES SALMONELLA TYPHIMURIUM, Strain/Indicator: TA98, Metabolic Activation: HAMSTER, LIVER, S-9, AROCLOR 1254 (10%), Method: PREINCUBATION
[5] = Test System: AMES SALMONELLA TYPHIMURIUM, Strain/Indicator: TA98, Metabolic Activation: NONE, Method: PREINCUBATION
[6] = Test System: AMES SALMONELLA TYPHIMURIUM, Strain/Indicator: TA98, Metabolic Activation: RAT, LIVER, S-9, AROCLOR 1254 (10%), Method: PREINCUBATION
[7] = Test System: AMES SALMONELLA TYPHIMURIUM, Strain/Indicator: TA100, Metabolic Activation: NONE, Method: PREINCUBATION
[8] = Test System: AMES SALMONELLA TYPHIMURIUM, Strain/Indicator: TA100, Metabolic Activation: RAT, LIVER, S-9, AROCLOR 1254 (10%), Method: PREINCUBATION
[9] = Test System: AMES SALMONELLA TYPHIMURIUM, Strain/Indicator: TA1535, Metabolic Activation: HAMSTER, LIVER, S-9, AROCLOR 1254 (10 OR 30%), Method: PREINCUBATION
[10] = Test System: AMES SALMONELLA TYPHIMURIUM, Strain/Indicator: TA1535, Metabolic Activation: NONE, Method: PREINCUBATION
[11] = Test System: AMES SALMONELLA TYPHIMURIUM, Strain/Indicator: TA1535, Metabolic Activation: RAT, LIVER, S-9, AROCLOR 1254 (10 OR 30%), Method: PREINCUBATION
[12] = Test System: AMES SALMONELLA TYPHIMURIUM, Strain/Indicator: TA1537, Metabolic Activation: NONE, Method: PREINCUBATION
[13] = Test System: AMES SALMONELLA TYPHIMURIUM, Strain/Indicator: TA98, Metabolic Activation: NONE, Method: STANDARD PLATE
[14] = Test System: AMES SALMONELLA TYPHIMURIUM, Strain/Indicator: TA100, Metabolic Activation: NONE, Method: STANDARD PLATE

## CCCCCCCCCCCCC/C([O-])=N/[N+](C)(C)CC(C)O (stereo not given)
[1]
  mutagenic call: inactive; negative
[2]
  mutagenic call: inactive; negative
[3]
  mutagenic call: inactive; negative
[4]
  mutagenic call: inactive; negative
Test System: AMES SALMONELLA TYPHIMURIUM, Strain/Indicator: TA98, Metabolic Activation: HAMSTER, LIVER, S-9, AROCLOR 1254 (30%), Method: PREINCUBATION
  mutagenic call: inactive; negative
[5]
  mutagenic call: inactive; negative
[6]
  mutagenic call: inactive; negative
Test System: AMES SALMONELLA TYPHIMURIUM, Strain/Indicator: TA98, Metabolic Activation: RAT, LIVER, S-9, AROCLOR 1254 (30%), Method: PREINCUBATION
  mutagenic call: inactive; negative
Test System: AMES SALMONELLA TYPHIMURIUM, Strain/Indicator: TA100, Metabolic Activation: HAMSTER, LIVER, AROCLOR 1254 (10%), Method: PREINCUBATION
  mutagenic call: inactive; negative
Test System: AMES SALMONELLA TYPHIMURIUM, Strain/Indicator: TA100, Metabolic Activation: HAMSTER, LIVER, S-9, AROCLOR 1254 (30%), Method: PREINCUBATION
  mutagenic call: inactive; negative
[7]
  mutagenic call: inactive; negative
[8]
  mutagenic call: inactive; negative
Test System: AMES SALMONELLA TYPHIMURIUM, Strain/Indicator: TA100, Metabolic Activation: RAT, LIVER, S-9, AROCLOR 1254 (30%), Method: PREINCUBATION
  mutagenic call: inactive; negative
[9]
  mutagenic call: inactive; negative
[10]
  mutagenic call: inactive; negative
[11]
  mutagenic call: inactive; negative
Test System: AMES SALMONELLA TYPHIMURIUM, Strain/Indicator: TA1537, Metabolic Activation: HAMSTER, LIVER, S-9, AROCLOR 1254 (10 OR 30%), Method: PREINCUBATION
  mutagenic call: inactive; negative
[12]
  mutagenic call: inactive; negative
Test System: AMES SALMONELLA TYPHIMURIUM, Strain/Indicator: TA1537, Metabolic Activation: RAT, LIVER, S-9, AROCLOR 1254 (10 OR 30%), Method: PREINCUBATION
  mutagenic call: inactive; negative

## CCCCCCCCCC[N+](C)(C)Cc1ccccc1
[1]
  mutagenic call: inactive; negative
[2]
  mutagenic call: inactive; negative
[3]
  mutagenic call: inactive; negative
Test System: AMES SALMONELLA TYPHIMURIUM, Strain/Indicator: TA98, Metabolic Activation: HAMSTER, LIVER, S-9, AROCLOR 1254 (10 OR 30%), Method: PREINCUBATION
  mutagenic call: inactive; negative
[5]
  mutagenic call: inactive; negative
Test System: AMES SALMONELLA TYPHIMURIUM, Strain/Indicator: TA98, Metabolic Activation: RAT, LIVER, S-9, AROCLOR 1254 (10 OR 30%), Method: PREINCUBATION
  mutagenic call: inactive; negative
Test System: AMES SALMONELLA TYPHIMURIUM, Strain/Indicator: TA100, Metabolic Activation: HAMSTER, LIVER, S-9, AROCLOR 1254 (10 OR 30%), Method: PREINCUBATION
  mutagenic call: inactive; negative
[7]
  mutagenic call: inactive; negative
Test System: AMES SALMONELLA TYPHIMURIUM, Strain/Indicator: TA100, Metabolic Activation: RAT, LIVER, S-9, AROCLOR 1254 (10 OR 30%), Method: PREINCUBATION
  mutagenic call: inactive; negative
[9]
  mutagenic call: inactive; negative
[10]
  mutagenic call: inactive; negative
[11]
  mutagenic call: inactive; negative

## C[C@H](CCC(=O)O)[C@H]1CC[C@H]2[C@@H]3CCc4cc(O)ccc4[C@H]3CC[C@]12C
[5]
  mutagenic call: inactive; negative
Test System: AMES SALMONELLA TYPHIMURIUM, Strain/Indicator: TA98, Method: PREINCUBATION
  mutagenic call: inactive; negative
Test System: AMES SALMONELLA TYPHIMURIUM, Strain/Indicator: TA100, Method: PREINCUBATION
  mutagenic call: inactive; negative

## ClCc1cccc2cc3ccc4cccc5ccc(c12)c3c45
[13]
  mutagenic call: active; positive
[14]
  mutagenic call: active; positive

## CC(C)Nc1ccc(Nc2ccccc2)cc1
[4]
  mutagenic call: inactive; negative
[5]
  mutagenic call: inactive; negative
[13]
  mutagenic call: inactive; negative
Test System: AMES SALMONELLA TYPHIMURIUM, Strain/Indicator: TA98, Metabolic Activation: RAT LIVER S-9, PHENOBARBITAL AND BETA-NAPHTHOFLAVONE, Method: PREINCUBATION
  mutagenic call: inactive; negative
[6]
  mutagenic call: inactive; negative
Test System: AMES SALMONELLA TYPHIMURIUM, Strain/Indicator: TA98, Metabolic Activation: S-9, Method: STANDARD PLATE
  mutagenic call: inactive; negative
Test System: AMES SALMONELLA TYPHIMURIUM, Strain/Indicator: TA100, Metabolic Activation: HAMSTER, LIVER, S-9, AROCLOR 1254 (10%), Method: PREINCUBATION
  mutagenic call: inactive; negative
[7]
  mutagenic call: inactive; negative
[14]
  mutagenic call: inactive; negative
Test System: AMES SALMONELLA TYPHIMURIUM, Strain/Indicator: TA100, Metabolic Activation: RAT LIVER S-9, PHENOBARBITAL AND BETA-NAPHTHOFLAVONE, Method: PREINCUBATION
  mutagenic call: inactive; negative
[8]
  mutagenic call: inactive; negative
Test System: AMES SALMONELLA TYPHIMURIUM, Strain/Indicator: TA100, Metabolic Activation: S-9, Method: STANDARD PLATE
  mutagenic call: inactive; negative
Test System: AMES SALMONELLA TYPHIMURIUM, Strain/Indicator: TA1535, Metabolic Activation: HAMSTER, LIVER, S-9, AROCLOR 1254 (10%), Method: PREINCUBATION
  mutagenic call: inactive; negative
[10]
  mutagenic call: inactive; negative
Test System: AMES SALMONELLA TYPHIMURIUM, Strain/Indicator: TA1535, Metabolic Activation: RAT LIVER S-9, PHENOBARBITAL AND BETA-NAPHTHOFLAVONE, Method: PREINCUBATION
  mutagenic call: inactive; negative
Test System: AMES SALMONELLA TYPHIMURIUM, Strain/Indicator: TA1535, Metabolic Activation: RAT, LIVER, S-9, AROCLOR 1254 (10%), Method: PREINCUBATION
  mutagenic call: inactive; negative
Test System: AMES SALMONELLA TYPHIMURIUM, Strain/Indicator: TA1537, Metabolic Activation: HAMSTER, LIVER, S-9, AROCLOR 1254 (10%), Method: PREINCUBATION
  mutagenic call: inactive; negative
[12]
  mutagenic call: inactive; negative
Test System: AMES SALMONELLA TYPHIMURIUM, Strain/Indicator: TA1537, Metabolic Activation: RAT LIVER S-9, PHENOBARBITAL AND BETA-NAPHTHOFLAVONE, Method: PREINCUBATION
  mutagenic call: inactive; negative
Test System: AMES SALMONELLA TYPHIMURIUM, Strain/Indicator: TA1537, Metabolic Activation: RAT, LIVER, S-9, AROCLOR 1254 (10%), Method: PREINCUBATION
  mutagenic call: inactive; negative
Test System: AMES SALMONELLA TYPHIMURIUM, Strain/Indicator: TA1538, Metabolic Activation: NONE, Method: PREINCUBATION
  mutagenic call: inactive; negative
Test System: AMES SALMONELLA TYPHIMURIUM, Strain/Indicator: TA1538, Metabolic Activation: RAT LIVER S-9, PHENOBARBITAL AND BETA-NAPHTHOFLAVONE, Method: PREINCUBATION
  mutagenic call: inactive; negative
Test System: E.COLI, Strain/Indicator: WP2UVRA, Metabolic Activation: NONE, Method: PREINCUBATION
  mutagenic call: inactive; negative
Test System: E.COLI, Strain/Indicator: WP2UVRA, Metabolic Activation: RAT LIVER S-9, PHENOBARBITAL AND BETA-NAPHTHOFLAVONE, Method: PREINCUBATION
  mutagenic call: inactive; negative
